From US11597724B2, “Herbicidally active 3-phenylisoxazoline-5-carboxamides of tetrahydro and dihydrofuran carboxylic acids and esters” (Bayer Aktiengesellschaft, priority 2017, dated 2023) come the findings set out here.

What all share (format): in vivo
For assay [1], the system named is Veronica persica. Briefly: Post-emergence herbicidal activity against VERPE. Conditions: Veronica persica, 504 h, dosage 320 g/ha. The gist of the method:
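Greenhouse plants treated at one-leaf stage, 2–3 weeks after sowing, by spraying WP or EC formulations with 0.5% additive at 600 l/ha water. Visual rating about 3 weeks later versus untreated controls (100% = plants dead, 0% = like controls).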

For assay [2], the system named is Amaranthus retroflexus. Nature of the assay: Pre-emergence herbicidal activity against AMARE. Conditions: Amaranthus retroflexus, 504 h, dosage 80 g/ha. The source says: (§1) 1. Pre-Emergence Herbicidal Action and Crop Plant Compatibility Seeds of monocotyledonous and dicotyledonous weed plants and crop plants are placed in plastic or wood fiber pots and covered with soil. The compounds of the invention, formulated in the form of wettable powders (WP) or as emulsion concentrates (EC), are then applied onto the surface of the covering soil as aqueous suspension or emulsion with addition of 0.5% additive at a water application rate of 600 l/ha (converted). After the treatment, the pots are placed in a greenhouse and kept under good growth conditions for the trial plants. After about 3 weeks, the effect of the preparations is scored visually in comparison with untreated controls as percentages. For example, 100% activity=the plants have died, 0% activity=like control plants. AMARE: Amaranthus retroflexus AVEFA: Avena fatua

Assay [3] deals with Setaria viridis. Briefly: Post-emergence herbicidal activity against SETVI. As to conditions: Setaria viridis, 504 h, dosage 320 g/ha, rated about 3 weeks after treatment. The gist of the method: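 Greenhouse weeds in sandy loam were sprayed at the one-leaf stage, 2–3 weeks after sowing, with WP or EC formulations plus 0.5% additive at 600 l/ha water. About 3 weeks later, damage was rated visually against untreated controls, where 100% means plants dead and 0% means like control.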

The test system of assay [4] is Echinochloa crus-galli. Briefly: Post-emergence herbicidal activity against ECHCG. Conditions: Echinochloa crus-galli, 504 h, dosage 320 g/ha, rated about 3 weeks after treatment. The gist of the method: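 Greenhouse pot plants sprayed post-emergence at one-leaf stage (2-3 weeks after sowing) with WP or EC formulations, 0.5% additive, 600 l/ha water. Visual rating about 3 weeks later versus untreated controls: 100% = plants dead, 0% = like control.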

The test system of assay [5] is Alopecurus myosuroides. Nature of the assay: Pre-emergence herbicidal activity against ALOMY. As to conditions: Alopecurus myosuroides, 504 h, dosage 80 g/ha, scored visually after about 3 weeks vs untreated controls (100% = plants have died, 0% = like control plants).
Text: as §1, with “ABUTH: Abutilon theophrasti ALOMY: Alopecurus myosuroides” for “AMARE: Amaranthus retroflexus AVEFA: Avena fatua”

In assay [6] the test system is Veronica persica. Nature of the assay: Pre-emergence herbicidal activity against VERPE. As to conditions: Veronica persica, 504 h, dosage 80 g/ha.
Text: as §1, with “STEME: Stellaria media VERPE: Veronica persica” for “AMARE: Amaranthus retroflexus AVEFA: Avena fatua”

The term pest or weed control denotes the degree to which the test organism was suppressed or injured, in per cent. A lower pest or weed control goes with weak suppression.

In the case of `C=CC1(C(=O)N[C@H]2CO[C@@H](C(=O)OC)C2)CC(c2cccc(F)c2)=NO1` (relative stereo) [I-07, methyl cis-4-[[3-(3-fluorophenyl)-5-vinyl-4H-isoxazole-5-carbonyl]amino]tetrahydrofuran-2-carboxylate], the pest or weed control at 320 g/ha in assay [1], in assay [3] and in assay [4] was 80% in each case. The compound also displayed a pest or weed control at 80 g/ha in assay [2] of 90%.

As to `C=CC1(C(=O)NC2=C(C(=O)OCC)COC2)CC(c2cc(F)cc(F)c2)=NO1` (stereo not shown) [I-23, ethyl 4-[[3-(3,5-difluorophenyl)-5-vinyl-4H-isoxazole-5-carbonyl]amino]-2,5-dihydrofuran-3-carboxylate], the pest or weed control at 80 g/ha was 90% in assay [5] and 80% in assay [2]. In addition, in assay [4], the pest or weed control at 320 g/ha came out at 90%.

Consider `COC(=O)[C@H]1C[C@@H](NC(=O)C2(OC)CC(c3cc(C)cc(Br)c3)=NO2)CO1` (relative stereo) [I-08, methyl cis-4-[[3-(3-bromo-5-methylphenyl)-5-methoxy-4H-isoxazole-5-carbonyl]amino]tetrahydrofuran-2-carboxylate], for which the pest or weed control at 320 g/ha in assay [1] stood at 80%; in assay [3], 80%; in assay [4], 90%. Also, in assay [6], the pest or weed control at 80 g/ha was 90%.

In the case of `COC(=O)[C@H]1C[C@H](NC(=O)[C@@]2(C)CC(c3cc(F)cc(F)c3)=NO2)CO1` (mixture of isomers) [I-55, methyl trans-4-[[(5R)-3-(3,5-difluorophenyl)-5-methyl-4H-isoxazole-5-carbonyl]amino]tetrahydrofuran-2-carboxylate], the pest or weed control at 320 g/ha in assay [1], in assay [3] and in assay [4] was 90% each time.

As to `COC(=O)C1=C[C@H](NC(=O)C2(C)CC(c3cccc(F)c3)=NO2)CO1` (stereo partly drawn) [I-39, methyl (3S)-3-[[3-(3-fluorophenyl)-5-methyl-4H-isoxazole-5-carbonyl]amino]-2,3-dihydrofuran-5-carboxylate], the results for the pest or weed control at 320 g/ha in assay [1], in assay [3] and in assay [4] were 80%, 90% and 100%, respectively.

Turning to `COC(=O)[C@H]1C[C@@H](NC(=O)C2(C)CC(c3cc(F)cc(F)c3)=NO2)CO1` (relative stereo) [I-01, methyl cis-4-[[3-(3,5-difluorophenyl)-5-methyl-4H-isoxazole-5-carbonyl]amino]tetrahydrofuran-2-carboxylate], the results for the pest or weed control at 320 g/ha in assay [1], in assay [3] and in assay [4] were 80%, 90% and 90%, respectively. In addition, the pest or weed control at 80 g/ha is 100% in assay [5] and 80% in assay [6].

Turning to `COC(=O)C1COCC1NC(=O)C1(OC)CC(c2cc(F)cc(F)c2)=NO1` (stereo not shown) [I-27, methyl 4-[[3-(3,5-difluorophenyl)-5-methoxy-4H-isoxazole-5-carbonyl]amino]tetrahydrofuran-3-carboxylate], the pest or weed control at 320 g/ha in assay [1] and in assay [3] was 80% each time. For the same compound, the pest or weed control at 80 g/ha in assay [5], in assay [2] and in assay [6] was 90% each time.

Consider `COC(=O)C1COCC1NC(=O)[C@@]1(C)CC(c2cc(F)cc(F)c2)=NO1` (stereo partly drawn) [I-28, methyl 4-[[(5R)-3-(3,5-difluorophenyl)-5-methyl-4H-isoxazole-5-carbonyl]amino]tetrahydrofuran-3-carboxylate], for which the pest or weed control at 320 g/ha in assay [1] worked out at 90%; in assay [3] it was 80%; in assay [4], 80%. For the same compound, the pest or weed control at 80 g/ha was found to be 100% in assay [5], 90% in assay [2] and 90% in assay [6].

Take `COC(=O)C1COCC1NC(=O)C1(C)CC(c2cc(F)cc(F)c2)=NO1` (stereo not shown) [I-19, methyl 4-[[3-(3,5-difluorophenyl)-5-methyl-4H-isoxazole-5-carbonyl]amino]tetrahydrofuran-3-carboxylate]: the pest or weed control at 320 g/ha turned out to be 80% in assay [1], 80% in assay [3] and 90% in assay [4]. For the same compound, the pest or weed control at 80 g/ha in assay [5] and in assay [6] was 90% throughout.

For `COC(=O)[C@H]1C[C@@H](NC(=O)C2(C)CC(c3cc(C)cc(Br)c3)=NO2)CO1` (relative stereo) [I-04, methyl cis-4-[[3-(3-bromo-5-methylphenyl)-5-methyl-4H-isoxazole-5-carbonyl]amino]tetrahydrofuran-2-carboxylate], the results for the pest or weed control at 320 g/ha in assay [1], in assay [3] and in assay [4] were 80%, 80% and 90%, respectively.

Regarding `C=CC1(C(=O)N[C@H]2CO[C@@H](C(=O)OC)C2)CC(c2cc(Cl)cc(Cl)c2)=NO1` (relative stereo) [I-03, methyl cis-4-[[3-(3,5-dichlorophenyl)-5-vinyl-4H-isoxazole-5-carbonyl]amino]tetrahydrofuran-2-carboxylate], the pest or weed control at 320 g/ha in assay [1], in assay [3] and in assay [4] was 80% each time. Further, the pest or weed control at 80 g/ha in assay [2] came to 80%.

For `COC(=O)[C@H]1C[C@@H](NC(=O)C2(OC)CC(c3ccccc3)=NO2)CO1` (relative stereo) [I-14, methyl cis-4-[(5-methoxy-3-phenyl-4H-isoxazole-5-carbonyl)amino]tetrahydrofuran-2-carboxylate], the pest or weed control at 320 g/ha in assay [1], in assay [3] and in assay [4] was 80% in each case.

Turning to `COC(=O)[C@H]1C[C@@H](NC(=O)C2(C(F)(F)F)CC(c3cc(F)cc(F)c3)=NO2)CO1` (relative stereo) [I-06, methyl cis-4-[[3-(3,5-difluorophenyl)-5-(trifluoromethyl)-4H-isoxazole-5-carbonyl]amino]tetrahydrofuran-2-carboxylate], the pest or weed control at 320 g/ha is 80% in assay [1], 80% in assay [3] and 90% in assay [4]. In assay [5], this compound came in with a pest or weed control at 80 g/ha of 80%.

Consider `COC(=O)[C@@]1(OC)C[C@@H](NC(=O)C2(C)CC(c3cccc(F)c3)=NO2)CO1` (stereo partly drawn) [I-47, methyl (2R,4R)-4-[[3-(3-fluorophenyl)-5-methyl-4H-isoxazole-5-carbonyl]amino]-2-methoxytetrahydrofuran-2-carboxylate], for which the pest or weed control at 320 g/ha was determined as 80% in assay [1], 80% in assay [3] and 100% in assay [4].

With `COC(=O)C1COCC1NC(=O)C1(OC)CC(c2cc(Cl)cc(Cl)c2)=NO1` (stereo not shown) [I-29, methyl 4-[[3-(3,5-dichlorophenyl)-5-methoxy-4H-isoxazole-5-carbonyl]amino]tetrahydrofuran-3-carboxylate], the figures for the pest or weed control at 320 g/ha in assay [1], in assay [3] and in assay [4] were 90%, 80% and 90%, respectively. Also, the pest or weed control at 80 g/ha in assay [5] was 90%; in assay [2] it was 90%; in assay [6] it was 100%.

On to `C=C[C@]1(C(=O)N[C@@H]2CO[C@@H](C(=O)OC)C2)CC(c2cc(F)cc(F)c2)=NO1` (mixture of isomers) [I-56, methyl trans-4-[[(5S)-3-(3,5-difluorophenyl)-5-vinyl-4H-isoxazole-5-carbonyl]amino]tetrahydrofuran-2-carboxylate], for which the pest or weed control at 320 g/ha in assay [1], in assay [3] and in assay [4] was 90% each time.
